A value given as a limit tells only on which side of the number the result lay.

The target in series [1] is T1, hERG potassium channel (Homo sapiens, UniProt Q12809).
T1 construct: Eurofins Cerep SA (CRO)
As to the kind of experiment: SafetyScreen44: hERG binding. From the text: (§1) Moreover, we explored the safety profile of frontrunner (R)‐30 in more detail in order to detect additional crucial off‐target interactions. For this purpose, we employed the SafetyScreen44 in vitro panel comprising selected binding, inhibition and uptake assays.^[ [35] ^] The panel is a specialized pharmacological profiling tool that tests compounds against 44 key molecular targets, aiming to identify potential safety risks early in drug discovery. […]
(§2) The off-target Safety Screen44TM was performed by the CRO Eurofins Cerep SA (Celle-
(§3) L'Evescault, France) according to their protocols.[13] […]
(§4) MMP-1 MMP-2 MMP-3 TACE (ADAM17)
(§5) Compound [% inhibition at [% inhibition at [% inhibition at [% inhibition at 100
For orientation: Block of hERG is tested as a sign of cardiac risk.

Series [2] concerns the target T2, 5‐hydroxytryptamin transporter (5‐HTT) (Homo sapiens, UniProt P31645).
T2 construct: Eurofins Cerep SA (CRO)
As to the kind of experiment: SafetyScreen44: 5-HTT binding.
From the text: as §1, §2, §3, §4, §5

Series [3] concerns the target T3, cyclooxygenase 1 (COX1) (Homo sapiens, UniProt P23219).
T3 construct: Eurofins Cerep SA (CRO)
As to the kind of experiment: SafetyScreen44: COX1. It counts as biochemical.
From the text: as §1, §2, §3, §4, §5

The subject of series [4] is sodium channel. As to the kind of experiment: SafetyScreen44: sodium channel binding. Also on record: species or system human. The following applies: 100 µM.
From the text: as §1, §2, §3, §4, §5

The nature of series [5]: Stability in mouse liver microsomes. It counts as in vitro ADME. The following applies: read-out: Mouse Liver Microsomes t1/2. As to the method:
Samples were stored on ice until the end of the incubation and precipitated protein was removed by centrifugation (15 min, 4 °C, 4,000 g). Concentration of the remaining test […]
compound at the different time points was analyzed by HPLC-MS/MS (TSQ Quantum Access […]
MAX, Thermo Fisher, Dreieich, Germany) and used to determine half -life (t1/2) and intrinsic […]
Species profiling was conducted as above using 0.5 mg/mL pooled mouse, rat or minipig liver microsomes (Xenotech, Kansas City, USA) with 2 mM NADPH and 10 mM MgCl2 and testosterone, verapamil and ketoconazole as reference compounds. […]
Thermo Fisher, Dreieich, Germany) and used to determine half-life (t1/2).
Table S2: Additional in vitro ADMET data for selected dipeptides. n.d.: not determined.
Kinetic Liver S9 Clint [µL/mg/min] Plasma t1/2 [min] LogD7.4 […]
pH 7.4 [µM] Mouse Human Mouse Human
On the technique in general: Liver microsomes are vesicles of endoplasmic reticulum, rich in cytochrome P450 enzymes.

Series [6] can be described thus: In vivo pharmacokinetic study in CD-1 mice, 30 mg/kg SC. The following applies: male, mouse, 30 mg/kg subcutaneous. As to the method:
page 60: Figure S7: Basolateral concentration of 9 (A) and 30 (B) in the Calu-3 permeability model. […] For pharmacokinetic experiments, outbred male CD-1 mice (Charles River, Netherlands), 4 weeks old, were used. The animal studies were conducted in accordance with the recommendations of the European Community (Directive 2010/63/EU, 1st January 2013). All animal procedures were performed in strict accordance with the German regulations of the Society for Laboratory Animal Science (GV-SOLAS) and the European Health Law of the Federation of Laboratory Animal Science Associations (FELASA). Animals were excluded from further analysis if sacrifice was necessary according to the human endpoints established by the ethical board. All experiments were approved by the ethical board of the […] Verbraucherschutz und […], Oldenburg, Germany. 30 was subjected to a focused PK study and was administered 30 mg/kg SC. At time points t= […] euthanatized and blood was collected from the heart. For all PK studies, whole blood was collected into Eppendorf tubes coated with 0.5 M EDTA and immediately spun down at 13,000 rpm for 10 min at 4°C. The plasma was transferred into a new Eppendorf tube and then stored at -80°C until analysis. Then, a broncheoalveolar lavage was conducted using isotonic sodium chloride solution for all PK studies. For all PK studies, lung, kidney and liver were aseptically removed and homogenized using a Polytron (Kinematica) in isotonic sodium chloride solution. Organ samples were aliquoted into Eppendorf tubes and stored at -80°C until analysis. Moreover, spontaneous urine was also collected. […] system and coupled to an AB Sciex QTrap6500+ mass spectrometer as described previously.[10] Mass spectrometric conditions can be found in Table S5. First, a calibration curve was prepared by spiking different concentrations of 30 into the respective matrix (mouse […] (1 picture or pasted object on this page, not shown here) page 61: plasma (pooled, from CD-1 mice) for plasma samples, isotonic sodium chloride solution for BALF samples, lung tissue for lung samples, kidney tissue for kidney samples, liver tissue for liver samples and urine for urine samples). Caffeine was used as an internal standard. In addition, quality control samples (QCs) were prepared for 30 with the respective matrix. The following extraction procedure was used: 7.5 μl of a plasma sample (calibration samples, QCs […] internal standard for 5 min at 2000 rpm on an Eppendorf MixMate® vortex mixer. 10 μl of a urine sample (calibration samples, QCs or PK samples) was extracted with 40 μl of methanol containing 12.5 ng/ml of caffeine as internal standard for 5 min at 2000 rpm on an Eppendorf MixMate® vortex mixer. Then samples (plasma and urine) were spun down at 13.000 rpm for 5 min. Supernatants were transferred to standard HPLC-glass vials. 50 μl of a BALF / lung tissue / kidney tissue or liver tissue sample (calibration samples, QCs or PK samples) were extracted with 50 μl of methanol and 1 μl caffeine (concentration 1 μg/ml in methanol) for 5 min at 800 rpm on an Eppendorf MixMate® vortex mixer. Then samples (BALF, liver, kidney, lung) were spun down at 4,000 rpm for 40 min at 4°C. Supernatants were transferred to 96well V-bottom plates (Greiner). Urea was used to enable calculation of epithelial lining fluid (ELF) concentrations. Peak areas of each sample and of the corresponding internal standard were analyzed using MultiQuant 3.0 software (AB Sciex). Peak areas of the respective sample were normalized to the internal standard peak area. Peaks of PK samples were quantified using the calibration curve. The accuracy of the calibration curve was determined using QCs independently prepared on different days. PK parameters were determined using a non- compartmental analysis with PKSolver.[11] ELF concentrations were calculated using the following formula (2).[12] (1) V_ELF=V_BALF × (Urea_BALF)/(Urea_Plasma ) (2) c_ELF=c_BALF× V_BALF/V_ELF S60

T1 sequence (Q12809 whole entry): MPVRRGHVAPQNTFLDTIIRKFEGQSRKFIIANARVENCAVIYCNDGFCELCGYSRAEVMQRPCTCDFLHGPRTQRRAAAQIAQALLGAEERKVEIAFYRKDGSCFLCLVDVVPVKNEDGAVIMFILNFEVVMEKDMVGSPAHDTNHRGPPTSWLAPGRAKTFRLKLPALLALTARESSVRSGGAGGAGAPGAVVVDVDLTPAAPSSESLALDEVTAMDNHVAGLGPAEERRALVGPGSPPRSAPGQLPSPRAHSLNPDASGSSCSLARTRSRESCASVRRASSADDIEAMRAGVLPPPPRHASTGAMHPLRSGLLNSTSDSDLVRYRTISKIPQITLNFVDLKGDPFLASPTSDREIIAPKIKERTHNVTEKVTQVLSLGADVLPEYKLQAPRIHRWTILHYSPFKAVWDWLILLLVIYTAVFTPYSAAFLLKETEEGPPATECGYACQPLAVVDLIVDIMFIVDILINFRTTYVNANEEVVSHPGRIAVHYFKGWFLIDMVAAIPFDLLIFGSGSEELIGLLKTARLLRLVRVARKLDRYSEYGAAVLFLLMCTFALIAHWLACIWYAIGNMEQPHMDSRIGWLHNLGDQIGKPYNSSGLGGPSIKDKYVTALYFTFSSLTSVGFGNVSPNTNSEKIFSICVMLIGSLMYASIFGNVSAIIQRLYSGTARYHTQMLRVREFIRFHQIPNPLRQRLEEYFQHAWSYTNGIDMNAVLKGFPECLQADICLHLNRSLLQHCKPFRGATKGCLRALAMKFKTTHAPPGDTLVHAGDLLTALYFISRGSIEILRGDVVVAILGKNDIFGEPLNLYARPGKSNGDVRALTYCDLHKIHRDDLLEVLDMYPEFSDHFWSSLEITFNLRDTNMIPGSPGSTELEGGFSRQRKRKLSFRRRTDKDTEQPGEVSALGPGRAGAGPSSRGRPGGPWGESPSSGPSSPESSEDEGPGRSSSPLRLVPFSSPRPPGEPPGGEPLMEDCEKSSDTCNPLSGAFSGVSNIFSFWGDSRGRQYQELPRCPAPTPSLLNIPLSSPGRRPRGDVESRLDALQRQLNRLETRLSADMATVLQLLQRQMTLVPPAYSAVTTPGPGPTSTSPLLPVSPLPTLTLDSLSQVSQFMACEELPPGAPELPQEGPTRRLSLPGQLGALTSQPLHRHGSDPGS
T3 sequence (P23219 24-599): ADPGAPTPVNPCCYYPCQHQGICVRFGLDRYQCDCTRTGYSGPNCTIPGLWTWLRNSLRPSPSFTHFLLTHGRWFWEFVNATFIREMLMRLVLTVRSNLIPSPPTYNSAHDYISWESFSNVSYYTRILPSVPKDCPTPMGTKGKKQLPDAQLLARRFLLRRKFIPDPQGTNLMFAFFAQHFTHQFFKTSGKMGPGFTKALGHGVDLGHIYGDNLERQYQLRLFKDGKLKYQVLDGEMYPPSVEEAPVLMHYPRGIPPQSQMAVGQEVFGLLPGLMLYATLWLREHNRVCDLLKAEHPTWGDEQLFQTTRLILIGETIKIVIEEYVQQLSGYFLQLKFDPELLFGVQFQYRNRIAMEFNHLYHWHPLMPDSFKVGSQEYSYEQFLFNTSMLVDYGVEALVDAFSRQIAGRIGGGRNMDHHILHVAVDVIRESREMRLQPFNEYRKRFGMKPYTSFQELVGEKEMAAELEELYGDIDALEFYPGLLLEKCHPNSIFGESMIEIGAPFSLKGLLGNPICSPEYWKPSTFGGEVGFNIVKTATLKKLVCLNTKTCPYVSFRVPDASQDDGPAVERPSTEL
T2 sequence (P31645 whole entry): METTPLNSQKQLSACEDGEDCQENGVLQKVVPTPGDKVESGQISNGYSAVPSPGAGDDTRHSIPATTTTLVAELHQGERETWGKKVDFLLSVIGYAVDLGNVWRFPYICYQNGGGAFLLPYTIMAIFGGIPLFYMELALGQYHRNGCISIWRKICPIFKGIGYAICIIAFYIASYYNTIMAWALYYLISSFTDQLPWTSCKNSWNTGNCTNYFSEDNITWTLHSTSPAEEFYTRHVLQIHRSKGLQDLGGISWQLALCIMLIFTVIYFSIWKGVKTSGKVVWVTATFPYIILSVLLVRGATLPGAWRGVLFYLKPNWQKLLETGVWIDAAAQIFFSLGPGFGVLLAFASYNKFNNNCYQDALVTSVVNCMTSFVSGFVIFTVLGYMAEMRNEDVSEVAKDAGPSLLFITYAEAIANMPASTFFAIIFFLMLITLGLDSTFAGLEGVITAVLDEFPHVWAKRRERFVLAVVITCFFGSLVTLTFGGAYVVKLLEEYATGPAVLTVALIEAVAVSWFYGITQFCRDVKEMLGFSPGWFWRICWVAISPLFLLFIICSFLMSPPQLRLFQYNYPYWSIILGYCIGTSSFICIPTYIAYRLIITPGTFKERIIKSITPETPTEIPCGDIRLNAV

One may read the inhibition as the share of the control response that was lost under treatment. Low values mean a response near the control, high ones a response far below the control. Turning to `CC(=O)c1ccc(NC(=O)[C@@H](NC(=O)[C@@H](CC(C)C)P(=O)(O)O)C(C)C)cc1` [(R)‐30], the results for the inhibition at 100 µM in series [1], in series [2] and in series [3] were 79.4%, 84.8% and 81.5%, respectively. In series [4], the “sodium channel binding inhibition” value is listed as 91.1%.

As usually defined, the AUC(0-t) is exposure summed from dosing to a finite time, without extrapolation to infinity. A low value points to low exposure. The CL/F is the apparent clearance, not corrected for the fraction that reaches the circulation. One may read the Cmax as the peak of the concentration-time curve. By MRT is commonly meant a mean duration of stay, worked out from the concentration-time curve. The term Tmax denotes the time at which the peak concentration occurs. Regarding `CC(=O)c1ccc(NC(=O)[C@@H](NC(=O)C(CC(C)C)P(=O)(O)O)C(C)C)cc1` (stereo partly drawn) [compound 30], in series [5], the half-life at 1 µM was over 2 h. Besides, the Kp in series [6] (CD-1, epithelial lining fluid (ELF) / plasma, sc, read-out: ELF/plasma ratio) was about 0.38. Further, in series [6] (CD-1, sc, plasma), the AUC(0-t) was found to be 249 ± 15.5 µg·h/mL, the CL/F stood at 1.3 ± 0.3 mL/min/kg, the Cmax was 32200 ± 8500 ng/mL and the MRT is 24.6 ± 16 h. Further, in series [6] (CD-1, sc, plasma), the time of peak concentration (Tmax) was found to be 0.75 ± 0.4 h and the half-life is 18.5 ± 11 h.

The values are drawn from article PMC11984924, “Dipeptidic Phosphonates: Potent Inhibitors of Pseudomonas aeruginosa Elastase B Showing Efficacy in a Murine Keratitis Model” (Advanced Science, 2025).
